Results published in patent US20260364168A1, “USE OF PROTEIN KINASE C (PKC) ACTIVATING COMPOUNDS AS AN ADJUVANT” (priority 2022, published 2026).
Like-named read-outs stand apart in the source and are kept apart here.

Tested on: human PBMC cells
Assay: cytokine/chemokine gene expression (TaqMan) in human PBMC
Conditions: Homo sapiens, PBMC, 4 h
Method: Materials and methods: 100 million frozen human PBMC cells were purchased from Allcells (100 million/vial). The cells were thawed and recovered for one day before 1.5-1.8 million cells in 900 μl RPMI1640 with 10% heat-inactivated FBS were seeded in each well of 24-well plates. Various compounds in DMSO stock (500×) were diluted 50-fold with the same media to make 10× compound stock for most compounds. 1 μL of 5 mg/mL PMA was diluted to 99 μL of the media to make 50 μg/mL PMA. For PMA with ionomycin treatment condition, 1.5 μL of 50 μg/mL PMA and 3 μL of 500 μg/mL ionomycin were added to 145.5 μL of the media to make 10× compound stock. Sources of the compounds are as follows: PMA from Abcam (Abcam #ab120297); Ionomycin from Sigma (Sigma #I0634); Resiquimod from Sellect Chem. (Selleckchem #S8133); and LPS from Sigma (Sigma #L6143).
Each treatment condition was performed in duplicates. After treatment, mRNA was extracted from cells and samples from duplicates were combined for TaqMan gene expression assays (ThermoFisher) in triplicates. Expression of 19 genes (IL-1β, IL-2, IL-4, IL-6, IL-8, IL-10, IL-13, IL-18, IL-12p70/IL-12A, IL-12p40/IL-12B, IFN-α, IFN-γ, GM-CSF/CSF2, CCL2/MCP-1, MIP1a/CCL3, TNF-α, MX1, OAS1, ISG15) along with two housekeeping gene controls, 18S and GAPDH, was determined. Target gene expression in each sample was determined by relative quantification (RQ) using the comparative Ct (ΔΔCT) method. This method measures the Ct difference (ΔCT) between target gene and the housekeeping genes (18S & GAPDH), then compares the ΔCT values of treated samples to DMSO-treated control samples. The mean ΔCT value of the DMSO-treated control from two independent DMSO-treated control samples was used. The relative expression level of target gene was calculated by using the equation:
relative expression=2^−ΔΔCT

CC1=C[C@H]2[C@@]3(O)[C@H](C)C[C@]4(OC(=O)[C@@H](N)[C@]56C[C@H]7C[C@H](C[C@H](C7)C5)C6)[C@H]([C@@H]3C=C(CO)C[C@]2(O)C1=O)C4(C)C
fold induction at 0.01 µM (read-out: CCL2 gene relative expression, 0.01 μM, 4 h, vs DMSO): 5.58
fold induction at 0.03 µM (read-out: CCL2 gene relative expression, 0.03 μM, 4 h, vs DMSO): 3.59
fold induction at 0.1 µM (read-out: CCL2 gene relative expression, 0.10 μM, 4 h, vs DMSO): 0.38
fold induction at 0.01 µM (read-out: GM-CSF gene relative expression, 0.01 μM, 4 h, vs DMSO): 1.59
fold induction at 0.03 µM (read-out: GM-CSF gene relative expression, 0.03 μM, 4 h, vs DMSO): 8.38
fold induction at 0.1 µM (read-out: GM-CSF gene relative expression, 0.10 μM, 4 h, vs DMSO): 16.1
fold induction at 0.01 µM (read-out: IFN-α gene relative expression, 0.01 μM, 4 h, vs DMSO): 0.78
fold induction at 0.03 µM (read-out: IFN-α gene relative expression, 0.03 μM, 4 h, vs DMSO): 0.46
fold induction at 0.1 µM (read-out: IFN-α gene relative expression, 0.10 μM, 4 h, vs DMSO): 0.31
fold induction at 0.01 µM (read-out: IFNγ gene relative expression, 0.01 μM, 4 h, vs DMSO): 1.69
fold induction at 0.03 µM (read-out: IFNγ gene relative expression, 0.03 μM, 4 h, vs DMSO): 3.82
fold induction at 0.1 µM (read-out: IFNγ gene relative expression, 0.10 μM, 4 h, vs DMSO): 18.1
fold induction at 0.01 µM (read-out: IL-1β gene relative expression, 0.01 μM, 4 h, vs DMSO): 0.59
fold induction at 0.03 µM (read-out: IL-1β gene relative expression, 0.03 μM, 4 h, vs DMSO): 2.26
fold induction at 0.1 µM (read-out: IL-1β gene relative expression, 0.10 μM, 4 h, vs DMSO): 3
fold induction at 0.01 µM (read-out: IL-2 gene relative expression, 0.01 μM, 4 h, vs DMSO): 3.06
fold induction at 0.03 µM (read-out: IL-2 gene relative expression, 0.03 μM, 4 h, vs DMSO): 7.78
fold induction at 0.1 µM (read-out: IL-2 gene relative expression, 0.10 μM, 4 h, vs DMSO): 3.29
fold induction at 0.01 µM (read-out: IL-4 gene relative expression, 0.01 μM, 4 h, vs DMSO): 0.84
fold induction at 0.03 µM (read-out: IL-4 gene relative expression, 0.03 μM, 4 h, vs DMSO): 2.54
fold induction at 0.1 µM (read-out: IL-4 gene relative expression, 0.10 μM, 4 h, vs DMSO): 2.77
fold induction at 0.01 µM (read-out: IL-6 gene relative expression, 0.01 μM, 4 h, vs DMSO): 1.17
fold induction at 0.03 µM (read-out: IL-6 gene relative expression, 0.03 μM, 4 h, vs DMSO): 0.86
fold induction at 0.1 µM (read-out: IL-6 gene relative expression, 0.10 μM, 4 h, vs DMSO): 6.72
fold induction at 0.01 µM (read-out: IL-8 gene relative expression, 0.01 μM, 4 h, vs DMSO): 0.71
fold induction at 0.03 µM (read-out: IL-8 gene relative expression, 0.03 μM, 4 h, vs DMSO): 0.54
fold induction at 0.1 µM (read-out: IL-8 gene relative expression, 0.10 μM, 4 h, vs DMSO): 0.6
fold induction at 0.01 µM (read-out: IL-10 gene relative expression, 0.01 μM, 4 h, vs DMSO): 1.12
fold induction at 0.03 µM (read-out: IL-10 gene relative expression, 0.03 μM, 4 h, vs DMSO): 0.41
fold induction at 0.1 µM (read-out: IL-10 gene relative expression, 0.10 μM, 4 h, vs DMSO): 0.09
fold induction at 0.01 µM (read-out: IL-12p40 gene relative expression, 0.01 μM, 4 h, vs DMSO): 0.89
fold induction at 0.03 µM (read-out: IL-12p40 gene relative expression, 0.03 μM, 4 h, vs DMSO): 0.32
fold induction at 0.1 µM (read-out: IL-12p40 gene relative expression, 0.10 μM, 4 h, vs DMSO): 0.22
fold induction at 0.01 µM (read-out: IL-12p70 gene relative expression, 0.01 μM, 4 h, vs DMSO): 1.03
fold induction at 0.03 µM (read-out: IL-12p70 gene relative expression, 0.03 μM, 4 h, vs DMSO): 0.87
fold induction at 0.1 µM (read-out: IL-12p70 gene relative expression, 0.10 μM, 4 h, vs DMSO): 0.76
fold induction at 0.01 µM (read-out: IL-13 gene relative expression, 0.01 μM, 4 h, vs DMSO): 3.1
fold induction at 0.03 µM (read-out: IL-13 gene relative expression, 0.03 μM, 4 h, vs DMSO): 52.6
fold induction at 0.1 µM (read-out: IL-13 gene relative expression, 0.10 μM, 4 h, vs DMSO): 101
fold induction at 0.01 µM (read-out: IL-18 gene relative expression, 0.01 μM, 4 h, vs DMSO): 0.26
fold induction at 0.03 µM (read-out: IL-18 gene relative expression, 0.03 μM, 4 h, vs DMSO): 0.06
fold induction at 0.1 µM (read-out: IL-18 gene relative expression, 0.10 μM, 4 h, vs DMSO): 0.06
fold induction at 0.01 µM (read-out: ISG15 gene relative expression, 0.01 μM, 4 h, vs DMSO): 1.01
fold induction at 0.03 µM (read-out: ISG15 gene relative expression, 0.03 μM, 4 h, vs DMSO): 1.33
fold induction at 0.1 µM (read-out: ISG15 gene relative expression, 0.10 μM, 4 h, vs DMSO): 1.54
fold induction at 0.01 µM (read-out: MIP1a (CCL3) gene relative expression, 0.01 μM, 4 h, vs DMSO): 1.65
fold induction at 0.03 µM (read-out: MIP1a (CCL3) gene relative expression, 0.03 μM, 4 h, vs DMSO): 2.82
fold induction at 0.1 µM (read-out: MIP1a (CCL3) gene relative expression, 0.10 μM, 4 h, vs DMSO): 5.73
fold induction at 0.01 µM (read-out: MX1 gene relative expression, 0.01 μM, 4 h, vs DMSO): 0.84
fold induction at 0.03 µM (read-out: MX1 gene relative expression, 0.03 μM, 4 h, vs DMSO): 1.01
fold induction at 0.1 µM (read-out: MX1 gene relative expression, 0.10 μM, 4 h, vs DMSO): 0.99
fold induction at 0.01 µM (read-out: OAS1 gene relative expression, 0.01 μM, 4 h, vs DMSO): 0.74
fold induction at 0.03 µM (read-out: OAS1 gene relative expression, 0.03 μM, 4 h, vs DMSO): 0.78
fold induction at 0.1 µM (read-out: OAS1 gene relative expression, 0.10 μM, 4 h, vs DMSO): 0.69
fold induction at 0.01 µM (read-out: TNF-α gene relative expression, 0.01 μM, 4 h, vs DMSO): 2.39
fold induction at 0.03 µM (read-out: TNF-α gene relative expression, 0.03 μM, 4 h, vs DMSO): 4.48
fold induction at 0.1 µM (read-out: TNF-α gene relative expression, 0.10 μM, 4 h, vs DMSO): 6.25
